Here are results for 13 molecules from PubChem BioAssay (NCI).

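Each compound was tested at five concentrations against cells in 96-well plates for 48 hours. GI50 = concentration required for 50% inhibition of growth. TGI: concentration producing complete growth inhibition.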

Test systems include OVCAR-5 ovarian; OVCAR-4 ovarian; K-562 leukemia; HCT-15 colon; LOX IMVI melanoma; A498 renal; MOLT-4 leukemia; SK-MEL-5 melanoma; DU-145 prostate; MCF7 breast.
Common to all, as to test: inhibition of tumour cell growth, NCI panel, 48 h

Regarding `c1ccc(SC23C4C5C6C4C2C6C53)nc1` (stereo unspecified), the TGI in the assay on OVCAR-5 ovarian, with OVCAR-4 ovarian, with K-562 leukemia, with HCT-15 colon, with LOX IMVI melanoma and in the assay with A498 renal was more than 100 µM each time. The TGI in the assay on MOLT-4 leukemia and in the assay on SK-MEL-5 melanoma was more than 100 µM each time.
As for `C=C1C(=O)O[C@H]2[C@H]1CC/C(COC(=O)OC/C1=C/CC[C@@]3(C)O[C@H]3[C@H]3OC(=O)[C@@H](CN(C)C)[C@@H]3CC1)=C\CC[C@@]1(C)O[C@@H]21`, the GI50 with OVCAR-5 ovarian was 2.13 µM; in the assay with OVCAR-4 ovarian it was 1.42 µM; in the assay with DU-145 prostate, 1.65 µM; with HCT-15 colon, 1.04 µM; in the assay on LOX IMVI melanoma it was 1.47 µM; in the assay on A498 renal, 8.29 µM. Besides, the GI50 in the assay with MOLT-4 leukemia was 0.874 µM; in the assay with SK-MEL-5 melanoma, 3.97 µM. In addition, the TGI stood at 5.21 µM in the assay with OVCAR-5 ovarian; 3.1 µM in the assay on OVCAR-4 ovarian; 3.32 µM with DU-145 prostate; 2.53 µM with HCT-15 colon; 2.97 µM in the assay with LOX IMVI melanoma; 21.8 µM in the assay on A498 renal. The TGI came to 3.75 µM in the assay on MOLT-4 leukemia and 15.1 µM in the assay with SK-MEL-5 melanoma.
For `CCOc1ccc(NCC2CC/C(=C\c3ccccc3OC)C2=O)cc1` (stereo unspecified), the TGI is 32.5 µM with OVCAR-5 ovarian; 12.8 µM in the assay with OVCAR-4 ovarian; more than 27.5 µM in the assay with K-562 leukemia; 7.82 µM in the assay on HCT-15 colon; 18.6 µM with LOX IMVI melanoma; 33.9 µM in the assay with A498 renal. The TGI stood at 20.9 µM in the assay on MOLT-4 leukemia and 30.3 µM with SK-MEL-5 melanoma.
As to `CCCCCCCCCCCCCCCCCCNC(=S)/N=C/c1c(O)c2ccccc2[nH]c1=O`, the TGI in the assay with MCF7 breast stood at 48.3 µM; in the assay with OVCAR-5 ovarian it was 31.2 µM; in the assay on OVCAR-4 ovarian, 41 µM; in the assay on DU-145 prostate, 29.7 µM; with HCT-15 colon, 29.4 µM; with LOX IMVI melanoma, 32.2 µM. In addition, the TGI with A498 renal is 36.9 µM; with MOLT-4 leukemia, 29.7 µM; with SK-MEL-5 melanoma, 70.7 µM.
Regarding `Nc1nc(SCc2ccccc2Cl)cc(C(=O)O)n1`, the TGI in the assay on MCF7 breast, in the assay with OVCAR-5 ovarian, with OVCAR-4 ovarian, in the assay on K-562 leukemia, in the assay on DU-145 prostate and in the assay on HCT-15 colon was more than 100 µM throughout. The TGI in the assay with LOX IMVI melanoma, in the assay on A498 renal and in the assay on SK-MEL-5 melanoma was more than 100 µM each time.
On to `Cc1ccc(S(=O)(=O)OC(COC(=O)c2ccccc2)C(OS(=O)(=O)c2ccc(C)cc2)C(OS(=O)(=O)c2ccc(C)cc2)C(COC(=O)c2ccccc2)OS(=O)(=O)c2ccc(C)cc2)cc1` (stereo unspecified), for which the TGI in the assay with OVCAR-4 ovarian, in the assay with K-562 leukemia, in the assay with HCT-15 colon, in the assay with LOX IMVI melanoma, in the assay on A498 renal and with MOLT-4 leukemia was more than 100 µM in each case. In the assay on SK-MEL-5 melanoma, this molecule gave a TGI of more than 100 µM.
Consider `COc1cc(C(C)c2cc3c(cc2OCCNC(=O)COc2cc4c(cc2C(C)c2cc(OC)c(OC)c(OC)c2)OCO4)OCO3)cc(OC)c1OC` (stereo unspecified), for which the TGI with OVCAR-5 ovarian, in the assay with OVCAR-4 ovarian, in the assay on K-562 leukemia, in the assay on HCT-15 colon, in the assay on LOX IMVI melanoma and in the assay with A498 renal was more than 100 µM throughout. The TGI in the assay with MOLT-4 leukemia is 71.8 µM; in the assay with SK-MEL-5 melanoma, more than 100 µM.
As for `C=C1C(=O)O[C@H]2[C@H]1CC/C(Cn1cc(-c3ccc(F)cc3)nn1)=C\CC[C@@]1(C)O[C@@H]21`, the GI50 with OVCAR-5 ovarian was 1.48 µM; in the assay on OVCAR-4 ovarian, 1.29 µM; with K-562 leukemia, 0.948 µM; in the assay on DU-145 prostate it was 0.69 µM; in the assay on HCT-15 colon, 0.282 µM; in the assay with LOX IMVI melanoma, 0.901 µM. For the same molecule, the GI50 was 1.82 µM with A498 renal, 0.387 µM in the assay with MOLT-4 leukemia and 1.74 µM in the assay on SK-MEL-5 melanoma. For the same molecule, the TGI in the assay with OVCAR-5 ovarian is 3.13 µM; in the assay on OVCAR-4 ovarian it was 3.03 µM; in the assay with K-562 leukemia, 4.84 µM; in the assay on DU-145 prostate, 1.99 µM; in the assay on HCT-15 colon it was 1.19 µM; in the assay on LOX IMVI melanoma, 2.22 µM. In addition, the TGI in the assay with A498 renal came to 3.91 µM; in the assay on MOLT-4 leukemia it was 2 µM; in the assay on SK-MEL-5 melanoma, 3.12 µM.
Consider `CCOC(=O)C(Cc1ccccc1)NC(=O)c1[nH]cnc1/N=N/N(C)C` (stereo unspecified), for which the TGI in the assay with OVCAR-5 ovarian, with OVCAR-4 ovarian, with K-562 leukemia, in the assay with HCT-15 colon, with LOX IMVI melanoma and with A498 renal was more than 100 µM each time. Besides, the TGI in the assay on MOLT-4 leukemia and in the assay on SK-MEL-5 melanoma was more than 100 µM in each case.
As to `O=C1CNC(=O)c2[nH]cnc2N1`, the TGI with OVCAR-5 ovarian, in the assay with OVCAR-4 ovarian, in the assay on K-562 leukemia, with HCT-15 colon, with LOX IMVI melanoma and with A498 renal was more than 100 µM each time. Besides, the TGI in the assay with MOLT-4 leukemia and in the assay with SK-MEL-5 melanoma was more than 100 µM in each case.
Take `O=C1C=Cc2c1ccc1ccccc21`: the GI50 is 18.6 µM in the assay with MCF7 breast; 16.1 µM in the assay with OVCAR-5 ovarian; 75.2 µM in the assay with OVCAR-4 ovarian; 28.7 µM in the assay on K-562 leukemia; 48.8 µM with DU-145 prostate; 24.1 µM in the assay with HCT-15 colon. Also, the GI50 is 22 µM with LOX IMVI melanoma and 21.1 µM in the assay on SK-MEL-5 melanoma. In addition, the TGI was more than 100 µM with MCF7 breast; 67.4 µM in the assay with OVCAR-5 ovarian; more than 100 µM in the assay on OVCAR-4 ovarian; more than 100 µM in the assay with K-562 leukemia; more than 100 µM in the assay with DU-145 prostate; more than 100 µM with HCT-15 colon. Further, the figures for the TGI in the assay with LOX IMVI melanoma and with SK-MEL-5 melanoma were 61.8 µM and 71 µM, respectively.
Regarding `CC1=NOC(=O)/C1=C/c1ccc([N+](=O)[O-])cc1`, the TGI in the assay on OVCAR-5 ovarian, with OVCAR-4 ovarian, with K-562 leukemia, in the assay with HCT-15 colon, with LOX IMVI melanoma and with A498 renal was more than 100 µM in each case. In addition, the TGI in the assay with MOLT-4 leukemia and in the assay with SK-MEL-5 melanoma was more than 100 µM each time.
As to `COC(=O)C(CC(=O)Nc1ccc(Cl)c(Cl)c1)C(=O)C(=O)Nc1ccc(Cl)c(Cl)c1` (stereo unspecified), the TGI in the assay on OVCAR-5 ovarian, with OVCAR-4 ovarian, with K-562 leukemia, with HCT-15 colon, in the assay with LOX IMVI melanoma and with A498 renal was more than 100 µM each time. For the same molecule, the TGI in the assay with MOLT-4 leukemia and in the assay on SK-MEL-5 melanoma was more than 100 µM in each case.
